# System: Plasmopara viticola
# Assay: 7-day preventive activity on Plasmopara viticola on vines, preventive leaf application (greenhouse test)
# Format: in vivo
# Design: key to Activity (y): scale 100 = healthy plant to 0 = completely infected plant
# Description: Efficacy of the mixtures of one or more compounds belonging to the FOS and SIN groups of compounds in the control of Plasmopara viticola on vines in preventive leaf application (greenhouse test) (Table 1-Table 3) and of the compositions of said mixtures with a further fungicidal component (Table 4).
# Leaves of cultivar Merlot vines, grown in vases, in a conditioned environment (20±1° C., 70% relative humidity) are treated by spraying both sides of the leaves with the mixtures under examination dispersed in an aqueous solution containing a 0.3% of tween 20.
# After remaining 7 days in a conditioned environment, the plants are infected on the lower side with an aqueous suspension of spores of Plasmopara viticola (200,000 spores per cm^3).
# The plants are kept in a humidity saturated environment, at 21° C., for the incubation period of the fungus and, at the end of this period (7 days), the fungicidal activity is evaluated according to an evaluation percentage scale from 100 (healthy plant) to 0 (completely infected plant).
# When the fungicidal activity found experimentally is greater than the value of E, this activity is considered a synergistic effect.
# [1] = Table 4, alone, 125 ppm of equivalent phosphorous acid
# [2] = compound alone, 250 ppm of equivalent phosphorous acid, scale 100 (healthy plant) to 0 (completely infected plant)
# [3] = Table 4, alone, 32 ppm of equivalent metal copper
compound,measurement,setting,value
"O=[PH]([O-])[O-].[Cu+2] [CuHPO3, copper (II) salt of phosphorous acid]",% activity of each single compound,"Table 3, alone, 250 ppm of equivalent phosphorous acid",CuHPO3: 250 ppm** (55) %
same,% activity of each single compound,[1],CuHPO3: 125 ppm** (32) %
same,Activity (y),[2],55
"[Cu+2].c1ccc2c(c1)-c1nc-2nc2[n-]c(nc3nc(nc4[n-]c(n1)c1ccccc41)-c1ccccc1-3)c1ccccc21 [Cu(II) phthalocyanine, copper phthalocyanine]",Activity (y),"SIN compound alone, 32 ppm of equivalent metal",10
same,% activity of each single compound,[3],(8) %
silicic acid,Activity (y),"SIN compound alone, 14 ppm of equivalent metal",14
"O=[PH]([O-])[O-].[Zn+2] [ZnHPO3, zinc salt of phosphorous acid]",% activity of each single compound,[1],ZnHPO3: 125 ppm** (18) %
same,Activity (y),[2],35
"COC(=O)[C@@H](C)N(C(=O)Cc1ccccc1)c1c(C)cccc1C [IR6141, methyl N-(phenylacetyl)-N-2,6-xylyl-R-alaninate]",inhibition at 5 ppm,"Plasmopara viticola, Table 4, alone, 5 ppm, read-out: % activity of each single compound",45%
titanium dioxide [TiO2],Activity (y),"SIN compound alone, 250 ppm",13
same,% activity of each single compound,"Table 3, alone, 125 ppm",TiO2: 125 ppm (3) %
same,% activity of each single compound,"Table 4, alone, 125 ppm",TiO2: 125 ppm (3) %
"COC(=O)CC(NC(=O)[C@@H](NC(=O)OC(C)C)C(C)C)c1ccc(Cl)cc1 (stereo partly drawn) [IR5885, methyl [S—(R,S)]-[3-(N-isopropoxycarbonylvalinyl)-amino]-3-(4-chlorophenyl)propanoate]",% activity of each single compound,"Table 4, alone, 0.45 ppm",IR5885: 0.45 ppm (41) %
O=C(O)c1ccccc1[O-].O=C(O)c1ccccc1[O-].[Cu+2] [Cu(SA)],% activity of each single compound,[3],Cu(SA): 32 ppm*** (42) %
"O=c1ccc2cc(O[C@@H]3O[C@H](CO)[C@@H](O)[C@H](O)[C@H]3O)c(O)cc2o1 [Esculin, esculin]",Activity (y),"SIN compound alone, 25 ppm",10
[C-]#N.[C-]#N.[C-]#N.[C-]#N.[C-]#N.[C-]#N.[C-]#N.[C-]#N.[C-]#N.[C-]#N.[C-]#N.[C-]#N.[C-]#N.[C-]#N.[C-]#N.[C-]#N.[C-]#N.[C-]#N.[Fe+2].[Fe+2].[Fe+2].[Fe+3].[Fe+3].[Fe+3].[Fe+3] [Prussian blue],Activity (y),"SIN compound alone, 250 ppm",32
same,% activity of each single compound,"Table 3, alone, 125 ppm",Prussian blue: 125 ppm (5) %
same,% activity of each single compound,"Table 4, alone, 125 ppm",Prussian blue: 125 ppm (5) %
CC(=O)Oc1ccccc1C(=O)[O-].CC(=O)Oc1ccccc1C(=O)[O-].[Cu+2] [Cu(ASA)2],% activity of each single compound,[3],Cu(ASA)2: 32 ppm*** (45) %
"[O]=[Zn] [ZnO, zinc oxide]",Activity (y),"SIN compound alone, 250 ppm",30
same,% activity of each single compound,"Table 3, alone, 125 ppm",ZnO: 125 ppm (14) %
same,% activity of each single compound,"Table 4, alone, 125 ppm",ZnO: 125 ppm (14) %
